The experiment deals with T1, human DP2 receptor (Homo sapiens, UniProt Q9Y5Y4).
T1 construct: expressed in transfected cells
T1 sequence (Q9Y5Y4 1-395): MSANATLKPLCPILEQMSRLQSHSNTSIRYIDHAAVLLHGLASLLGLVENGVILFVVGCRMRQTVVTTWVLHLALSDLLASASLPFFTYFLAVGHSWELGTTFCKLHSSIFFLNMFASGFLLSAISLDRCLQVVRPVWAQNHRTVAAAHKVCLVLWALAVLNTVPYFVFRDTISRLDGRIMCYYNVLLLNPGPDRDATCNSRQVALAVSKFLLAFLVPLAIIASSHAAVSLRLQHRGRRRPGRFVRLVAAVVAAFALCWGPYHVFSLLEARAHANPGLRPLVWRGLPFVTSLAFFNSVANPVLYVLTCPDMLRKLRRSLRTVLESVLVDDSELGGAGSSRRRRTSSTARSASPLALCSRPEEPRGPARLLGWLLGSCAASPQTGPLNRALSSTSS
Kind of experiment: DP2/CRTH2 binding assay (radioligand binding with [3H]PGD2). The settings on record: [3H]PGD2 binding, membranes of HEK293 cells expressing recombinant human DP2; read-out: hDP2. Here is the method:
The ability of a compound to bind to the human DP2 receptor is assessed via a radioligand binding assay using [^3H]PGD2. HEK293 cells stably expressing recombinant human DP2 are resuspended in 10 mM Hepes, 7.4 containing 1 mM DTT, lysed and centrifuged at 75,000×g to pellet the membranes. The membranes are resuspended in 10 mM Hepes, 7.4 containing 1 mM DTT and 10% glycerol to approximately 5 mg protein/ml. Membranes (2-10 μg protein/well) are incubated in 96-well plates with 1 nM [^3H]PGD2 and test compound in Assay Buffer (50 mM Hepes, 10 mM MnCl2, 1 mM EDTA, plus or minus 0.2% human serum albumin, pH 7.4) for 60 minutes at room temperature. The reactions are terminated by rapid filtration through Whatman GF/C glass fibre filter plates. The filter plates were pre-soaked in 0.33% polythylenimine for 30 minutes at room temperature then washed in Wash Buffer (50 mM Hepes, 0.5 M NaCl pH 7.4) prior to harvesting. After harvesting, the filter plates are washed 3 times with 1 ml cold Wash Buffer then dried. Scintillant is then added to the plates and the radioactivity retained on the filters is determined on a Packard TopCount (Perkin Elmer). Specific binding is determined as total radioactive binding minus non-specific binding in the presence of 10 μM PGD2. IC50s were determined using GraphPad prism analysis of drug titration curves.
With `CCN(Cc1cc(SC(C)(C)C)ccc1-c1cncc(CC(=O)O)c1)C(=O)C1CC1` [Compound 22, (5-{4-tert-Butylsulfanyl-2-[(N-cyclopropanecarbonyl-N-ethyl-amino)-methyl]-phenyl}-pyridin-3-yl)-acetic acid], the IC50 is under 300 nM.

For the compound `CCN(Cc1cc(C(F)(F)F)ccc1-c1cncc(CC(=O)O)c1)C(=O)Cc1ccc(Cl)nc1` [Compound 31, {5-[2-({N-[2-(6-Chloro-pyridin-3-yl)-acetyl]-N-ethyl-amino}-methyl)-4-trifluoromethyl-phenyl]-pyridin-3-yl}-acetic acid], the IC50 is under 300 nM.

On to `CC(C)(C)NC(=O)c1ccc(-c2cncc(CC(=O)O)c2)c(CN(Cc2ccccc2)C(=O)C2CC2)c1` [Compound 7, (5-{2-[(N-Benzyl-N-cyclopropanecarbonyl-amino)-methyl]-4-tert-butylcarbamoyl-phenyl}-pyridin-3-yl)-acetic acid], for which the IC50 was 300 to 1000 nM.

For `CC(=O)N(Cc1ccccc1)Cc1cc(C(F)(F)F)ccc1-c1cc(CC(=O)O)cnc1Cl` [Compound 19, (5-{2-[(N-Acetyl-N-benzyl-amino)-methyl]-4-trifluoromethyl-phenyl}-6-chloro-pyridin-3-yl)-acetic acid], the IC50 is under 300 nM.

As for `CCN(Cc1cc(C(F)(F)F)ccc1-c1cncc(CC(=O)O)c1)C(=O)NCc1ccccc1` [Compound 14, {5-[2-(3-Benzyl-1-ethyl-ureidomethyl)-4-trifluoromethyl-phenyl]-pyridin-3-yl}-acetic acid], the IC50 was under 300 nM.

With `CCN(Cc1cc(C(F)(F)F)ccc1-c1cncc(CC(=O)O)c1)C(=O)OCc1ccccc1` [Compound 12, (5-{2-[(N-Benzyloxycarbonyl-N-ethyl-amino)-methyl]-4-trifluoromethyl-phenyl}-pyridin-3-yl)-acetic acid], the IC50 is under 300 nM.

As for `CCN(Cc1cc(C(F)(F)F)ccc1-c1cc(CC(=O)O)c[n+]([O-])c1)C(=O)OCc1ccccc1` [Compound 15, (5-{2-[(N-Benzyloxycarbonyl-N-ethyl-amino)-methyl]-4-trifluoromethyl-phenyl}-1-oxy-pyridin-3-yl)-acetic acid], the IC50 was under 300 nM.

For `CCN(Cc1cc(C(F)(F)F)ccc1-c1cc(CC(=O)O)cnc1OC)C(=O)OCc1ccccc1` [Compound 40, (5-{2-[(N-Benzyloxycarbonyl-N-ethyl-amino)-methyl]-4-trifluoromethyl-phenyl}-6-methoxy-pyridin-3-yl)-acetic acid], the IC50 was under 300 nM.

For `CCN(Cc1cc(C(F)(F)F)ccc1-c1cncc(CC(=O)O)c1)C(=O)COC` [Compound 34, [5-(2-{[N-Ethyl-N-(2-methoxy-acetyl)-amino]-methyl}-4-trifluoromethyl-phenyl)-pyridin-3-yl]-acetic acid], the IC50 lay in the range of 300 to 1000 nM.

For `CCN(Cc1cc(C(F)(F)F)ccc1-c1cc(CC(=O)O)cnc1Cl)C(=O)C1CC1` [Compound 11, (6-Chloro-5-{2-[(N-cyclopropanecarbonyl-N-ethyl-amino)-methyl]-4-trifluoromethyl-phenyl}-pyridin-3-yl)-acetic acid], the IC50 lay in the range of 300 to 1000 nM.

On to `CCN(Cc1cc(C(F)(F)F)ccc1-c1cncc(CC(=O)O)c1)C(=O)CCc1ccccc1` [Compound 25, [5-(2-{[N-Ethyl-N-(3-phenyl-propionyl)-amino]-methyl}-4-trifluoromethyl-phenyl)-pyridin-3-yl]-acetic acid], for which the IC50 is under 300 nM.

For `CCN(Cc1cc(C(F)(F)F)ccc1-c1cncc(CC(=O)O)c1)C(=O)CCc1cccnc1` [Compound 36, [5-(2-{[N-Ethyl-N-(3-pyridin-3-yl-propionyl)-amino]-methyl}-4-trifluoromethyl-phenyl)-pyridin-3-yl]-acetic acid], the IC50 was 300 to 1000 nM.

On to `O=C(O)Cc1cncc(-c2ccc(-c3nn[nH]n3)cc2CN(Cc2ccccc2)C(=O)C2CC2)c1` [Compound 4, {5-[2-[(N-Benzyl-N-cyclopropanecarbonyl-amino)-methyl]-4-(2H-tetrazol-5-yl)-phenyl]-pyridin-3-yl}-acetic acid], for which the IC50 was under 300 nM.

On to `N#Cc1ccc(-c2cncc(CC(=O)O)c2)c(CN(Cc2ccccc2)C(=O)C2CC2)c1` [Compound 3, (5-{2-[(N-Benzyl-N-cyclopropanecarbonyl-amino)-methyl]-4-cyano-phenyl}-pyridin-3-yl)-acetic acid], for which the IC50 was under 300 nM.

Turning to `CCN(Cc1cc(C(F)(F)F)ccc1-c1cncc(CC(=O)O)c1)C(=O)Cc1ccccn1` [Compound 33, [5-(2-{[N-Ethyl-N-(2-pyridin-2-yl-acetyl)-amino]-methyl}-4-trifluoromethyl-phenyl)-pyridin-3-yl]-acetic acid], the IC50 was under 300 nM.
